Patent US9267129B2, “Compositions and methods for conferring herbicide resistance” (BEN-GURION UNIVERSITY OF THE NEGEV RESEARCH AND DEVELOPMENT …, priority 2011, dated 2016)

Key:
[1] = tested on: E. coli BUM1 carrying the mutant gene (pEp-mut); experiment: Growth on M9 plates with SMM, bacteria carrying the mutant gene; assay type: cell-based, Escherichia coli; conditions: 50 μM SMM, 48 hrs, 37° C.
Description: (§1) This strain also requires proline and thiamin, regardless of AHAS expression. Transformation of BUM1 cells was achieved using a standard heat shock protocol. BUM1 cells were grown in LB or in M9 minimal medium (7 mg/ml Na2HPO4; 3 mg/ml KH2PO4; 0.5 mg/ml NaCl; 1 mg/ml NH4Cl; 0.12 mg/ml MgSO4; 0.35 mg/ml thiamin HCl; 2 mg/ml glucose) supplemented with 200 μg/ml proline. Where appropriate, the M9 medium was supplemented with the BCAAs valine, leucine, and isoleucine (150 μg/ml of each) or with 50 μM SMM. BUM1 transformants were propagated and kept on LB medium supplemented with 100 μg/ml Ampicillin. For functional expression assays, the cells were washed and plated on M9 agar plates and incubated for 48 hrs at 37° C. […]
(§2) The expression vector pEp-empty, an empty plasmid that retains the native ilvEp promoter and ATG start codon, was created by amplification of pAH29 plasmid with the pAH29-empty primer set, and included BamHI and SalI restriction sites for future fusion with the algal genes. Three forms of PiAHAS genes were used for this experiment: PiAHAS full open reading frame (ORF), truncated PiAHAS without the estimated chloroplast targeting peptide (from Serine91), and PimAHAS containing the point mutation (W605S). […] The plates were incubated for 48 hrs (FIG. 3) and bacterial growth was determined. […]

[2] = tested on: E. coli BUM1 transformed with the wild type PiAHAS genes; experiment: Growth on M9 plates with SMM, bacteria transformed with wild type PiAHAS genes; assay type: cell-based, Escherichia coli; conditions: 50 μM SMM, 48 hrs, 37° C.
Description: as §1, §2

COC(=O)c1ccccc1S(=O)(=O)NC(=O)Nc1nc(C)cc(C)n1 [SMM, sulfometuron methyl]
bacterial growth in presence of SMM [1]: not affected
bacterial growth in presence of SMM [2]: totally inhibited
